Results from patent US20260041653A1, “AN HDAC INHIBITOR FOR TREATING CANCER WITH A MODIFIED STK11 ACTIVITY OR EXPRESSION” (Tango Therapeutics, Inc., priority 2022, published 2026).

Test system: MC38_sgStk11 tumor
Test: Anti-tumor efficacy in murine subcutaneous MC38_sgStk11 tumor model
Format: in vivo, Mus musculus
Conditions: for T/C / TGI %: day 11
Description: Summary: An in vivo anti-tumor efficacy of double combination treatment of Anti-PD1 and HDAC1,2-selective inhibitor in a murine subcutaneous MC38_sgStk11 tumor model in […] mice was performed.
96 mice plus 39 spare mice of the species: Mus musculus: strain: C57BL/6; age 8-10 weeks; sex: female; and body weight: 16.9-20.0 g
The MC38_sgStk11 tumor cells were maintained in vitro as a monolayer culture in DMEM+2 mM glutamine supplemented with about 10% heat inactivated fetal bovine serum, about 100 U/ml penicillin and 100 μg/ml streptomycin at about 37° C. in an atmosphere of about 5% CO2 in air. The tumor cells were routinely sub-cultured twice weekly by trypsin-EDTA treatment. The cells growing in an exponential growth phase were harvested and counted for tumor inoculation.
Each mouse was inoculated subcutaneously at the right upper flank with MC38_sgStk11 tumor cells (0.5×106) in 0.1 ml of PBS for tumor development. Treatments were started on day 4 after tumor inoculation when the average tumor size reached 52 mm^3. The animals were assigned into groups according to a sorting standard operating procedures based upon their tumor volumes. Each group consisted of 8 tumor bearing mice. The testing article was administrated to the mice according to the predetermined regimen as shown in the experimental design table (Table 1-1).
All the procedures related to animal handling, care and the treatment in the study were performed according to the guidelines approved by the Institutional Animal Care and Use Committee (IACUC) of vendor following the guidance of the Association for Assessment and Accreditation of Laboratory Animal Care (AAALAC). At the time of routine monitoring, the animals were daily checked for any effects of tumor growth and treatments on normal behavior such as mobility, food and water consumption, body weight gain/loss (body weights were measured three times per week), eye/hair matting and any other abnormal effect as stated in the protocol. Death and observed clinical signs were recorded on the basis of the numbers of animals within each subset.
A primary endpoint was to see if the tumor growth could be delayed or mice could be cured. Tumor size was measured three times per week in two dimensions using a caliper, and the volume was expressed in mm3 using the formula: V=0.5 a×b2 where a and b are the long and short diameters of the tumor, respectively. The T/C value (in percent) is an indication of antitumor effectiveness; T and C are the mean volume of the treated and control groups, respectively, on a given day. TGI is calculated for each group using the formula: TGI (%)=[1−(Ti−T0)/(Vi−V0)]×100; Ti is the average tumor volume of a treatment group on a given day, T0 is the average tumor volume of the treatment group on the day of treatment start, Vi is the average tumor volume of the vehicle control group on the same day with Ti, and V0 is the average tumor volume of the vehicle group on the day of treatment start.
Statistical analysis of difference in the tumor volume among the groups were conducted on the data obtained at the best therapeutic time point at the day 11 after the start of treatment. A one-way ANOVA was performed for comparisons between groups. The survival analysis between groups was carried out with Kaplan-Meier test. p<0.05 was considered to be statistically significant.

[1] = Gr 2: Compound I 3 mg/kg PO QD + Anti-IgG2a 10 mg/kg IP BIW
[2] = Gr 3: Compound I 10 mg/kg PO QD + Anti-IgG2a 10 mg/kg IP BIW
[3] = Gr 4: Compound I 30 mg/kg PO QD + Anti-IgG2a 10 mg/kg IP BIW
[4] = Gr 5: Compound I 75 mg/kg PO QD + Anti-IgG2a 10 mg/kg IP BIW

SMILES: C[S@@](=N)(=O)c1ccc(C(=O)Nc2cc(-c3ccc(F)cc3)ccc2N)cc1 [Compound I, (R)—N-(4-amino-4′-fluoro-[1,1′-biphenyl]-3-yl)-4-(S-methylsulfonimidoyl)benzamide]
- CR (complete regression) [1]: 0.0%
- ORR (CR + PR) [1]: 0.0%
- PR (partial regression) [1]: 0.0%
- Tumor Volume (Gr 2: Compound I 3 mg/kg PO QD + Anti-IgG2a 10 mg/kg IP BIW, day 0 of treatment): 52 ± 2 mm^3
- Tumor Volume (Gr 2: Compound I 3 mg/kg PO QD + Anti-IgG2a 10 mg/kg IP BIW, day 2 of treatment): 208 ± 6 mm^3
- Tumor Volume (Gr 2: Compound I 3 mg/kg PO QD + Anti-IgG2a 10 mg/kg IP BIW, day 4 of treatment): 489 ± 23 mm^3
- Tumor Volume (Gr 2: Compound I 3 mg/kg PO QD + Anti-IgG2a 10 mg/kg IP BIW, day 7 of treatment): 925 ± 98 mm^3
- Tumor Volume (Gr 2: Compound I 3 mg/kg PO QD + Anti-IgG2a 10 mg/kg IP BIW, day 9 of treatment): 1439 ± 130 mm^3
- T/C [1]: 98.7%
- TGI % [1]: 1.3%
- Tumor Volume (Gr 2: Compound I 3 mg/kg PO QD + Anti-IgG2a 10 mg/kg IP BIW, day 11 of treatment): 2105 ± 184 mm^3
- Tumor Volume (Gr 2: Compound I 3 mg/kg PO QD + Anti-IgG2a 10 mg/kg IP BIW, day 14 of treatment): 2876 ± 196 mm^3
- Tumor Volume (Gr 2: Compound I 3 mg/kg PO QD + Anti-IgG2a 10 mg/kg IP BIW, day 16 of treatment): 3215 ± 79 mm^3
- CR (complete regression) [2]: 0.0%
- ORR (CR + PR) [2]: 0.0%
- PR (partial regression) [2]: 0.0%
- Tumor Volume (Gr 3: Compound I 10 mg/kg PO QD + Anti-IgG2a 10 mg/kg IP BIW, day 0 of treatment): 52 ± 2 mm^3
- Tumor Volume (Gr 3: Compound I 10 mg/kg PO QD + Anti-IgG2a 10 mg/kg IP BIW, day 2 of treatment): 213 ± 10 mm^3
- Tumor Volume (Gr 3: Compound I 10 mg/kg PO QD + Anti-IgG2a 10 mg/kg IP BIW, day 4 of treatment): 473 ± 38 mm^3
- Tumor Volume (Gr 3: Compound I 10 mg/kg PO QD + Anti-IgG2a 10 mg/kg IP BIW, day 7 of treatment): 735 ± 82 mm^3
- Tumor Volume (Gr 3: Compound I 10 mg/kg PO QD + Anti-IgG2a 10 mg/kg IP BIW, day 9 of treatment): 1059 ± 167 mm^3
- T/C [2]: 65.8%
- TGI % [2]: 35.0%
- Tumor Volume (Gr 3: Compound I 10 mg/kg PO QD + Anti-IgG2a 10 mg/kg IP BIW, day 11 of treatment): 1403 ± 270 mm^3
- Tumor Volume (Gr 3: Compound I 10 mg/kg PO QD + Anti-IgG2a 10 mg/kg IP BIW, day 14 of treatment): 1923 ± 343 mm^3
- Tumor Volume (Gr 3: Compound I 10 mg/kg PO QD + Anti-IgG2a 10 mg/kg IP BIW, day 16 of treatment): 2101 ± 176 mm^3
- Tumor Volume (Gr 3: Compound I 10 mg/kg PO QD + Anti-IgG2a 10 mg/kg IP BIW, day 18 of treatment): 2570 ± 205 mm^3
- Tumor Volume (Gr 3: Compound I 10 mg/kg PO QD + Anti-IgG2a 10 mg/kg IP BIW, day 21 of treatment): 3275 ± 64 mm^3
- CR (complete regression) [3]: 0.0%
- ORR (CR + PR) [3]: 0.0%
- PR (partial regression) [3]: 0.0%
- Tumor Volume (Gr 4: Compound I 30 mg/kg PO QD + Anti-IgG2a 10 mg/kg IP BIW, day 0 of treatment): 52 ± 2 mm^3
- Tumor Volume (Gr 4: Compound I 30 mg/kg PO QD + Anti-IgG2a 10 mg/kg IP BIW, day 2 of treatment): 212 ± 14 mm^3
- Tumor Volume (Gr 4: Compound I 30 mg/kg PO QD + Anti-IgG2a 10 mg/kg IP BIW, day 4 of treatment): 484 ± 37 mm^3
- Tumor Volume (Gr 4: Compound I 30 mg/kg PO QD + Anti-IgG2a 10 mg/kg IP BIW, day 7 of treatment): 734 ± 64 mm^3
- Tumor Volume (Gr 4: Compound I 30 mg/kg PO QD + Anti-IgG2a 10 mg/kg IP BIW, day 9 of treatment): 883 ± 84 mm^3
- T/C [3]: 49.5%
- TGI % [3]: 51.8%
- Tumor Volume (Gr 4: Compound I 30 mg/kg PO QD + Anti-IgG2a 10 mg/kg IP BIW, day 11 of treatment): 1055 ± 101 mm^3
- Tumor Volume (Gr 4: Compound I 30 mg/kg PO QD + Anti-IgG2a 10 mg/kg IP BIW, day 14 of treatment): 1481 ± 146 mm^3
- Tumor Volume (Gr 4: Compound I 30 mg/kg PO QD + Anti-IgG2a 10 mg/kg IP BIW, day 16 of treatment): 1977 ± 272 mm^3
- Tumor Volume (Gr 4: Compound I 30 mg/kg PO QD + Anti-IgG2a 10 mg/kg IP BIW, day 18 of treatment): 2344 ± 368 mm^3
- Tumor Volume (Gr 4: Compound I 30 mg/kg PO QD + Anti-IgG2a 10 mg/kg IP BIW, day 21 of treatment): 2602 ± 361 mm^3
- Tumor Volume (Gr 4: Compound I 30 mg/kg PO QD + Anti-IgG2a 10 mg/kg IP BIW, day 23 of treatment): 2794 ± 665 mm^3
- Tumor Volume (Gr 4: Compound I 30 mg/kg PO QD + Anti-IgG2a 10 mg/kg IP BIW, day 25 of treatment): 1551 mm^3
- Tumor Volume (Gr 4: Compound I 30 mg/kg PO QD + Anti-IgG2a 10 mg/kg IP BIW, day 28 of treatment): 2589 mm^3
- Tumor Volume (Gr 4: Compound I 30 mg/kg PO QD + Anti-IgG2a 10 mg/kg IP BIW, day 30 of treatment): 3550 mm^3
- CR (complete regression) [4]: 12.5%
- ORR (CR + PR) [4]: 12.5%
